Test results reported in ChEMBL document CHEMBL1121427, “Decomposition of pharmacological activity indices into mutually independent components using principal component analysis” (J Med Chem, 1980).

Columns and labels:
[1] = tested on: Aspergillus niger; experiment: The compound was evaluated for activity against Aspergillus niger; format: functional
[2] = tested on: Aspergillus oryzae; experiment: The compound was evaluated for activity against Aspergillus oryzae; format: functional; design: unit not given here
[3] = tested on: Albifimbria verrucaria; experiment: The compound was evaluated for activity against Myrothecium verrucaria; format: functional; design: unit not given here
[4] = tested on: Trichoderma viride; experiment: The compound was evaluated for activity against Trichoderma viride; format: functional; design: unit not given here
[5] = tested on: Trichophyton benhamiae; experiment: The compound was evaluated for activity against Trichophyton mentagrophytes; format: functional, Arthroderma benhamiae
[6] = tested on: Bacillus subtilis; experiment: Inhibitory activity against Bacillus subtilis; format: functional; design: unit not given here
[7] = tested on: Staphylococcus aureus; experiment: The compound was evaluated for activity against strain Micrococcus aureus; format: functional; design: unit not given here
[8] = tested on: Streptococcus pyogenes; experiment: The compound was evaluated for activity against strain Streptococcus hemolyticus; format: functional; design: unit not given here
[9] = tested on: Enterococcus faecalis; experiment: The compound was evaluated for activity against strain Streptococcus faecalis; format: functional; design: unit not given here
[10] = -Log C was determined by performing the electroshock minimum test; format: ADME; design: unit not given here
[11] = -Log C was determined by performing the foot shock test; format: ADME; design: unit not given here
[12] = -Log C was determined by performing the incl screen test; format: ADME; design: unit not given here
[13] = -Log C was determined by performing the maximum electroshock test; format: ADME; design: unit not given here
[14] = -Log C was determined by performing the pentylenetetrazole test; format: ADME; design: unit not given here

Row | SMILES | -Log C [1] [mM l-1] | -Log C [2] | -Log C [3] | -Log C [4] | -Log C [5] [mM l-1] | -Log C [6] | -Log C [7] | -Log C [8] | -Log C [9] | further results
1 | Oc1c(Cl)cc(Br)c2cccnc12 | 2.11 | 1.82 | 2.41 | 2.41 | 2.41 |  |  |  |  | 
2 | Oc1c(F)cc(Br)c2cccnc12 | 1.92 | 1.62 | 2.39 | 1.92 | 2.39 |  |  |  |  | 
3 | Nc1cc(I)c2cccnc2c1O | 1.15 | 1.03 | 1.51 | 1.21 | 2.21 |  |  |  |  | 
4 | CCN(CCO)C(=O)COc1cc2c(O)c3c(O)c(C)c4c(c13)C(=O)C(C)(O/C=C/C(OC)C(C)C(OC(C)=O)C(C)C(O)C(C)C(O)C(C)/C=C/C=C(/C)C(=O)N2)O4 (configuration not stated) |  |  |  |  |  | 5.73 | 7.52 | 6.96 | 6.18 | 
5 | Oc1c(I)cc(F)c2cccnc12 | 2 | 2.62 | 1.16 | 2.46 | 2.46 |  |  |  |  | 
6 | Oc1c(Br)cc(I)c2cccnc12 | 2.07 | 1.85 | 2.24 | 2.24 | 2.24 |  |  |  |  | 
7 | CN1C(=O)CN=C(c2ccccc2)c2cc(C#N)ccc21 |  |  |  |  |  |  |  |  |  | -Log C [10]: 0.14; -Log C [11]: 1.74; -Log C [12]: 1.14; -Log C [13]: 1.29; -Log C [14]: 2.36
8 | COc1ccccc1C1=NCC(=O)Nc2ccc(Cl)cc21 |  |  |  |  |  |  |  |  |  | -Log C [10]: 0.35; -Log C [11]: 0.48; -Log C [12]: 0; -Log C [13]: 1; -Log C [14]: 1.6
9 | O=[N+]([O-])c1cc(Cl)c2cccnc2c1O | 1.15 |  |  |  | 1.89 |  |  |  |  | 
10 | COC1/C=C/OC2(C)Oc3c(C)c(O)c4c(O)c(cc(OCC(=O)Nc5ccc(Br)cc5)c4c3C2=O)NC(=O)/C(C)=C\C=C\C(C)C(O)C(C)C(O)C(C)C(OC(C)=O)C1C (configuration not stated) |  |  |  |  |  | 5.78 | 6.48 | 6.66 | 6.56 | 
11 | Cc1ccc2c(c1)C(c1ccccc1)=NCC(=O)N2 |  |  |  |  |  |  |  |  |  | -Log C [10]: 0.51; -Log C [11]: 0.4; -Log C [12]: 0.4; -Log C [13]: 1.75; -Log C [14]: 1.55
12 | O=[N+]([O-])c1ccc2cccnc2c1O | 0.48 | 0.28 | 1.13 | 1.28 | 1.8 |  |  |  |  | 
13 | O=[N+]([O-])c1cc(F)c(O)c2ncccc12 | 0.44 | 0.68 | 1.21 | 1.32 | 2.32 |  |  |  |  | 
14 | COC1/C=C/OC2(C)Oc3c(C)c(O)c4c(O)c(cc(OCC(=O)N(C)CCO)c4c3C2=O)NC(=O)/C(C)=C\C=C\C(C)C(O)C(C)C(O)C(C)C(OC(C)=O)C1C (configuration not stated) |  |  |  |  |  | 5.23 | 6.93 | 7.15 | 5.85 | 
15 | COC1/C=C/OC2(C)Oc3c(C)c(O)c4c(O)c(cc(OCC(=O)N5CCOCC5)c4c3C2=O)NC(=O)/C(C)=C\C=C\C(C)C(O)C(C)C(O)C(C)C(OC(C)=O)C1C (configuration not stated) |  |  |  |  |  | 5.74 | 6.44 | 7.26 | 5.84 | 
16 | COC1/C=C/OC2(C)Oc3c(C)c(O)c4c(O)c(cc(OCC(=O)N5CCCCCC5)c4c3C2=O)NC(=O)/C(C)=C\C=C\C(C)C(O)C(C)C(O)C(C)C(OC(C)=O)C1C (configuration not stated) |  |  |  |  |  | 6.45 | 8.32 | 7.92 | 7.45 | 
17 | Oc1c(I)cc(Br)c2cccnc12 | 2.07 | 1.24 | 2.24 | 1.96 | 2.24 |  |  |  |  | 
18 | Oc1c(Br)cc(F)c2cccnc12 | 1.92 | 1.67 | 2.39 | 2.39 | 2.39 |  |  |  |  | 
19 | N#Cc1ccc2c(c1)C(c1ccccc1)=NCC(=O)N2 |  |  |  |  |  |  |  |  |  | -Log C [10]: 0.41; -Log C [11]: 0.82; -Log C [12]: 0.54; -Log C [13]: 0.89; -Log C [14]: 2.3
20 | Oc1c(I)ccc2cccnc12 | 2.13 | 1.48 | 2.43 | 2.43 | 2.43 |  |  |  |  | 
21 | CCCCN(CCCC)C(=O)COc1cc2c(O)c3c(O)c(C)c4c(c13)C(=O)C(C)(O/C=C/C(OC)C(C)C(OC(C)=O)C(C)C(O)C(C)C(O)C(C)/C=C/C=C(/C)C(=O)N2)O4 (configuration not stated) |  |  |  |  |  | 7.16 | 8.46 | 7.86 | 7.46 | 
22 | C#CCN(CCC)C(=O)COc1cc2c(O)c3c(O)c(C)c4c(c13)C(=O)C(C)(O/C=C/C(OC)C(C)C(OC(C)=O)C(C)C(O)C(C)C(O)C(C)/C=C/C=C(/C)C(=O)N2)O4 (configuration not stated) |  |  |  |  |  | 6.97 | 8.44 | 8.62 | 7.14 | 
23 | Oc1c(I)cc(Cl)c2cccnc12 [CLIOQUINOL] | 2.01 |  |  |  | 2.01 |  |  |  |  | 
